Results on one compound are retold here after US9763934B2, “Synergistic effect of poloxamer-based composition and itraconazole on fungus and yeast” (Professional Compounding Centers of America (PCCA), priority 2014, dated 2017).

Structures are written as SMILES.

This experiment concerns C. albicans ATCC 90028 biofilm. Description: Antifungal biofilm susceptibility testing (MBIC), NCCLS M27-A broth microdilution, CellTiter 96 viability readout. In kind it is cell-based, Candida albicans. On the procedure: Materials: Itraconazole EP Micronized (lot number C149307) and PCCA Formula #10342 (4 g of Itraconazole EP Micronized +37.574 g of Poloxamer composition) were provided by PCCA (Houston, Tex., USA) as powders. Itraconazole and PCCA Formula #10342 were prepared on the day of the assay. Fluconazole and amphotericin B were obtained as powders and stored at 4° C. […] Strain: Candida albicans isolate ATCC 90028 was obtained from American Type Culture Collection (Manassas, Va.), and used in the course of this study. Methods: To determine antimicrobial activity of itraconazole and micronized poloxamer composition 202 against biofilms of Candida albicans, an antifungal biofilm susceptibility testing was developed in conditions where a Minimum Biofilm Inhibitory Concentration (MBIC) of itraconazole in a micronized poloxamer composition 202, micronized poloxamer excipient, itraconazole, fluconazole and amphotericin B was measured for the C. albicans biofilm according to the NCCLS M27-A broth microdilution method (NCCLS, 1997). The testing medium used for growing was RPMI 1640 (American Biorganics, Inc., […].) supplemented with L-glutamine (Sigma Aldrich®). […] Cell viability was determined by using CellTiter 96® Non-Radioactive Cell Proliferation Assay (Promega, 2013).
In general terms: In broth dilution the organism is exposed to a series of concentrations in liquid medium.

As for `C[C@@H]1[C@H](O)[C@@H](C)/C=C/C=C/C=C/C=C/C=C/C=C/C=C/[C@H](O[C@@H]2O[C@H](C)[C@@H](O)[C@H](N)[C@@H]2O)C[C@@H]2O[C@](O)(C[C@@H](O)C[C@@H](O)[C@H](O)CC[C@@H](O)C[C@@H](O)CC(=O)O[C@H]1C)C[C@H](O)[C@H]2C(=O)O` [Amphotericin B, amphotericin B], the MBIC is 0.5 µg/mL. The “Minimum Biofilm Inhibitory Concentration” value (48 h at 35° C., lowest concentration giving 50% reduction of fungal growth, combination value expressed as concentration of itraconazole) amounted to 0.5 µg/mL.
